# Reference: PMC5107945, “Abscinazole-E3M, a practical inhibitor of abscisic acid 8′-hydroxylase for improving drought tolerance” (Scientific Reports, 2016)
# What was measured:
# rice seedling growth = assay: Rice seedling elongation assay; type: in vivo, Oryza sativa L. cv. Nipponbare; details: Fig. S5
# Procedure: The effects of (−)-Abz-T compounds were also tested on the early growth of rice seedlings to investigate whether the plant growth-retardant effect derived from UNI declined. […] This was the same trend observed for (−)-Abz-E2B[26]. […] Thus, the growth-retardant effects of (−)-Abz-T compounds may arise from an increase in the endogenous ABA level due to the CYP707A inhibition, although we cannot exclude the possibility that Abz-T compounds may inhibit off-target enzymes other than CYP707A and CYP701A.
# Figure 4 Effects of (−)-Abz-T compounds on rice seedling growth compared with the effects of UNI and (−)-Abz-E2B. Seedlings grown on test media containing indicated concentrations of azole inhibitors for 7 d. Scale bars represent 10 mm. Compound 6 is also referred to as Abz-E3M.
# For the rice seedling elongation assay, seven seeds (Oryza sativa L. cv. Nipponbare) were sterilised with reagent-grade EtOH for 5 min and washed with running tap water. They were then soaked in distilled water and incubated under continuous illumination at 25 °C for 3 d to germinate. The germinated seeds were then soaked in 2 mL of a test medium in a glass tube and grown under continuous illumination at 25 °C. When the seedlings were 7 d old, the length of the second leaf sheath was measured. All of the assays were conducted at least three times.
# [1] = test system: ABA-responsive genes MAPKKK18, RD29A and RD29B; assay: qRT-PCR of ABA-responsive genes in Arabidopsis seedlings; type: in vivo, Arabidopsis (Columbia accession); details: 10-day-old seedlings, 6 h
# Procedure: Figure 5 Effects of (−)-Abz-E3M on the expression levels of Arabidopsis ABA-responsive genes. Expression of MAPKKK18, RD29A and RD29B after treatment with (−)-Abz-E2B or (−)-Abz-E3M in the absence or presence of 0.25 μM ABA (n = 4, error bar represents s.d.).
# Arabidopsis (Columbia accession) were grown for 10 d on agar plates containing 1/2 Murashige and Skoog (MS) and 0.5% sucrose at 22 °C under an 18/6-h light/dark cycle. Seedlings were incubated in the chemical solutions for 6 h. Total RNA from seedlings was isolated using the Plant RNA purification reagent (Thermo Fisher Scientific) according to the manufacturer’s instructions. cDNA was synthesised using the QuantiTec reverse transcription kit (Qiagen). Maize (cv. Gold rush, Sakata Seed Corporation) seedlings were grown in 100-mL pots containing 75 g of moist soil in a glass house. The root parts of the maize seedlings were washed with tap water and dipped in 100 μM (−)-Abz-E3M chemical solution containing 0.05% Tween-20 overnight. Total RNA from maize seedlings was isolated using an RNeasy mini kit (Qiagen) with the ‘on-column’ DNA digestion method. cDNA was synthesised using a High-Capacity cDNA Reverse Transcription Kit (Thermo Fisher Scientific). Real-time PCR using SYBR Premix Ex Taq™ II (Takara) was performed with Step One-Plus (Thermo Fisher Scientific). The primer sets are shown in Supplemental Table S1.
# [2] = test system: ABA-responsive genes ZmLEA, Zm.12309.1.S and ZmCOR410; assay: qRT-PCR of ABA-responsive genes in maize; type: in vivo, Maize (cv. Gold rush); details: maize 2-week-old seedlings, roots dipped in 100 μM overnight, aerial shoot tissues
# Procedure: The effects of (-)-Abz-[…] were also determined relative to stomatal apertures. Arabidopsis grown in soil pots underwent moderate drought stress under the optimal growth conditions of 22 °C and 60% relative humidity. Under these growth conditions, the leaf surface temperature of the mock-treated controls was 19.5 °C, which was lower than the surrounding atmospheric temperature because of transpirational water loss (Fig. 6a,b)[30]. […] Finally, we examined the effects of (-)-Abz-[…] on drought tolerance under more practical conditions. Three-week-old Arabidopsis were sprayed with an aqueous solution containing 50 μM (-)-Abz-[…]. Water was not supplied for 12 days, and then the plants were rehydrated. […] We also tested the effects of (-)-Abz-[…] on a monocot crop, maize, to evaluate whether (-)-Abz-[…] affected stomatal movement and enhanced ABA response across plant species. […] Thus, the effects of (-)-Abz-[…] were not restricted to the model plant Arabidopsis. Figure 7 Effects of (-)-Abz-[…] on maize. (a) Thermal images of the leaf surface temperatures of (-)-Abz-[…]-treated maize plants. (b) Leaf surface temperatures of (-)-Abz-[…]-treated maize plants. The stomatal conductance (c) and transpiration rate (d) in (-)-Abz-[…]-treated maize at different light intensities. […] Values are means with s.d. (n = 4 for leaf surface temperature, n = 3 for stomatal conductance and transpiration rate). […]
substance,measurement,setting,value
abscinazole-E3M [(−)-6],"Effect on rice seedling growth, co-treatment with ABA",rice seedling growth; 10 μM compound + 1 μM ABA,inhibited rice seedling growth
same,"Effect on rice seedling growth, compound alone","rice seedling growth; 10 μM, no ABA",did not
same,"Expression of ABA-responsive genes MAPKKK18, RD29A and RD29B",[1]; absence of exogenous ABA,did not induce the expression
same,"Expression of ABA-responsive genes MAPKKK18, RD29A and RD29B",[1]; co-treatment with 0.25 μM ABA,enhanced the expression levels of ABA-responsive genes
same,"Expression of ABA-responsive genes ZmLEA, Zm.12309.1.S and ZmCOR410",[2],induced the expression of ABA-responsive genes
